Measured values from ChEMBL document CHEMBL1151857, “A new psoralen derivative with enlarged antiproliferative properties” (Bioorg Med Chem Lett, 2009).
pIC50: −log10 of the molar value. Active and inactive are the calls of the source. The calls are words filed in the database; no cut-off is given here.

How the values were obtained:
[1] = test system: HeLa; experiment: Photo-antiproliferative activity against human HeLa cells under dark condition; format: functional, cell-based
[2] = test system: Zone of skin; experiment: Phototoxicity in depilated guinea pig skin assessed as formation of erythema; format: tissue-based, Cavia porcellus
[3] = test system: HeLa; experiment: Photo-antiproliferative activity against human HeLa cells exposed to 365 nm, 0.793 Jcm'-2 UVA light; format: functional, cell-based; details: light or radiation study
[4] = test system: Nucleic Acid; experiment: Binding affinity to DNA assessed as intercalation between base pairs by linear flow dichroism spectroscopy; format: nucleic-acid assay

| SMILES | pIC50 [1] | Activity [2] | pIC50 [3] | Activity [4] |
| --- | --- | --- | --- | --- |
| COc1c2occc2cc2ccc(=O)oc12 [METHOXSALEN] | < 4.70 | Toxic |  |  |
| CN(C)CCCOc1c2oc(=O)ccc2cc2c1oc1nnccc12 | 4.87 |  | 5.54 | Active |
